Data published in patent publication US20100016335A1, “NOVEL AMINOPYRIDINE DERIVATIVES HAVING AURORA A SELECTIVE INHIBITORY ACTION” (priority 2006, published 2010).
Counter-ions that a name gives are not always drawn.

How the values were obtained:
human Aurora A = biological target: T1, human Aurora A (Homo sapiens, UniProt O14965); experiment: Aurora A inhibitory activity (IMAP fluorescence polarization phosphorylation assay); type: biochemical; conditions: 20 μM ATP, 30° C., 120 minutes
T1 construct: His (N); made in house; host or cells: Escherichia coli BL21-CodonPlus(DE3)-RIL
T1 sequence (O14965 1-403): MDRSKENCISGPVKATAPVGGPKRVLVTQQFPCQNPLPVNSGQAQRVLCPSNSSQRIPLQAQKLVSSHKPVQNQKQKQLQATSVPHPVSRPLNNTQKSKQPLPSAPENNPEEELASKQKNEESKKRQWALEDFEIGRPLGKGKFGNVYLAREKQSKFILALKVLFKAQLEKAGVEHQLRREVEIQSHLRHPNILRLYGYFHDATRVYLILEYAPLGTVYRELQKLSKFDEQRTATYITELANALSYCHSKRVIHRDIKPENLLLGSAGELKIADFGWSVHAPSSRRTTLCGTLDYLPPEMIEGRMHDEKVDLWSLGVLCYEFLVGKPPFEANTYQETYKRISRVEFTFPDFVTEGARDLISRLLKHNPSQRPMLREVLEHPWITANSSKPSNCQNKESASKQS

[1] = biological target: T2, GST-tagged human Aurora B(AurB)/His-tagged human INCENP complex proteins (Homo sapiens, UniProt Q96GD4); experiment: Aurora B inhibitory activity (Method A, IMAP assay kit); type: biochemical; conditions: 40 μM ATP, 25° C., 45 minutes
T2 construct: GST; purchased Carna Biosciences, Inc

[2] = tested on: Human cervical cancer cells (HeLa S3); experiment: Cell growth inhibitory effect, WST-8 method; type: cell-based; conditions: Homo sapiens, 72 h; HeLa S3, three days incubation; read-out: Cell growth inhibitory effect (HeLaS3) (IC50)
Description: Fetal calf serum (FCS) was purchased from Moregate Biotech, and DMEM medium was purchased from Invitrogen Corp. WST-8 was purchased from Kishida Chemical Co., Ltd.
(§1) Human cervical cancer cells (HeLa S3) were obtained from the American Type Culture Collection (ATCC).
Cells were suspended in a DMEM medium containing 10% FCS, and the cell suspension was dispensed to a 96-well plastic plate at a rate of 750 cells/100 microliters per well. The plate was incubated overnight in 5% CO2-95% air at 37° C. A drug was subjected to graded dilution in dimethylsulfoxide and further diluted with a DMEM medium containing 10% FCS. Then, the dilution was dispensed to the plate on which cells had been disseminated in advance, at a rate of 100 microliters per well. The plate was incubated for further three days in 5% CO2-95% air at 37° C. Cell growth after incubation was measured by the WST-8 method (H. Tominaga, et al., Anal. Commun., 36, 47-50 (1999)). Here, the WST-8 method refers to a method in which 20 microliters of a WST-8 reagent solution is added to each well, incubation is conducted at 37° C. for 60 minutes, the plate is stirred, and the amount of formazan produced is measured by a […] method to determine the inhibitory rate of the drug.

[3] = tested on: Human cervical cancer cells (HeLa S3); experiment: Effect by combined use of drugs in cells (docetaxel), WST-8 method; type: cell-based; conditions: HeLa S3, three days; for inhibition at 0.1 µM: compound 0.1 μM alone; for inhibition at 0.3 µM: compound 0.3 μM alone; for inhibition at 1 µM: compound 1.0 μM alone
Description: Fetal calf serum (FCS) was purchased from Moregate Biotech, DMEM medium from Invitrogen Corp., docetaxel (tradename: Taxere) from Sigma-Aldrich, Inc., and WST-8 from Kishida Chemical Co., Ltd.
as §1
Cells were suspended in a DMEM medium containing 10% FCS, and the cell suspension was dispensed to two 96-well plastic plates at a rate of 750 cells/100 microliters per well. The plates were incubated overnight in 5% CO2-95% air at 37° C. A drug was subjected to graded dilution in dimethylsulfoxide and further diluted with DMSO or with a DMEM medium containing 10% FCS and also containing 0.6 nM docetaxel. Then, the dilutions were each dispensed to one of the plates on which cells had been disseminated in advance, at a rate of 100 microliters per well. The final concentration of docetaxel at this stage was 0.3 nM. Also, the concentrations in the case of sole administration of the compound according to the invention were 0.003, 0.01, 0.03, 0.1, 0.3, 1, 3 and 10 μM. The plates were incubated for further three days in 5% CO2-95% air at 37° C. Cell growth after incubation was measured by the WST-8 method (H. Tominaga, et al., Anal. Commun., 36, 47-50 (1999)). Here, the WST-8 method refers to a method in which 20 microliters of a WST-8 reagent solution is added to each well, incubation is conducted at 37° C. for 60 minutes, the plate is stirred, and the amount of formazan produced is measured by a colorimetric method to determine the inhibitory rate of the drug. The growth inhibitory effects of docetaxel and of the compound according to the invention were determined, with the value obtained in sole treatment of DMSO being defined as 0%.

[4] = Homo sapiens, HeLa S3, 72 h, read-out: Cell growth inhibitory effect by sole administration of the compound of Example (%)
[5] = compound 0.1 μM + docetaxel 0.3 nM
[6] = compound 0.3 μM + docetaxel 0.3 nM
[7] = compound 1.0 μM + docetaxel 0.3 nM

T2 sequence (Q96GD4 whole entry): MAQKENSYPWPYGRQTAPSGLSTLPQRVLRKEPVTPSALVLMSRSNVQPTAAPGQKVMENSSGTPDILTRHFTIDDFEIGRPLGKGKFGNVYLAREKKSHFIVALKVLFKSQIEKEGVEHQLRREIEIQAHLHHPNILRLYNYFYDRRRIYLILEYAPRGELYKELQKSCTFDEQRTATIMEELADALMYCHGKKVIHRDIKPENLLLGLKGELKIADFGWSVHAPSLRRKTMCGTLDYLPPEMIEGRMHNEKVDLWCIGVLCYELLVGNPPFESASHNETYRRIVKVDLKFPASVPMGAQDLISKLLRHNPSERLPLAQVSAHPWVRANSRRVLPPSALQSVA
T2 sequence (Q9NQS7 803-916 partner limits assumed): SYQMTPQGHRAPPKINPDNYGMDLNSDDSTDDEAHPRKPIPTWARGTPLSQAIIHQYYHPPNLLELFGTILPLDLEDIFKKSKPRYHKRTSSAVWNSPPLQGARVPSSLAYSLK

What does the source list for `O=C(O)[C@]1(Cc2cccc(Nc3nccs3)n2)CC[C@@H](Sc2cccc(Cl)c2Cl)CC1` [Example 30, trans-4-((2,3-dichlorophenyl)thio)-1-((6-(1,3-thiazol-2-ylamino)pyridin-2-yl)methyl)cyclohexanecarboxylic acid trifluoroacetate]?
IC50 (human Aurora A): 0.08 nM; IC50 [1]: 39 nM; IC50 [2]: 340 nM; inhibition at 0.1 µM [3, 4]: 28.3%; inhibition at 0.3 µM [3, 4]: 53.4%; Cell growth inhibitory effect by combined administration of docetaxel and the compound of Example (%) [3, 5]: 81.2%; Cell growth inhibitory effect by combined administration of docetaxel and the compound of Example (%) [3, 6]: 92.0%

How did the IC50 (human Aurora A) turn out when `O=C(O)[C@]1(Cc2cccc(Nc3nccs3)n2)CC[C@@H]([S+]([O-])c2cccc(Cl)c2Cl)CC1` (stereo partly drawn) [Example 31, trans-4-((2,3-dichlorophenyl)sulfinyl)-1-((6-(1,3-thiazol-2-ylamino)pyridin-2-yl)methyl)cyclohexanecarboxylic acid trifluoroacetate] was run?
Its IC50 is 0.19 nM.

And the IC50 [1]?
Its IC50 is 53 nM.

What about the IC50 [2] of the same compound?
The IC50 was 5890 nM.

What about the inhibition at 1 µM [3, 4] of the same compound?
Its inhibition at 1 µM is 1%.

And the inhibition at 3 µM ([3]; Homo sapiens, HeLa S3, 72 h, compound 3.0 μM alone, read-out: Cell growth inhibitory effect by sole administration of the compound of Example (%))?
The inhibition at 3 µM was 38.5%.

And the “Cell growth inhibitory effect by combined administration of docetaxel and the compound of Example (%)” value (from here on “Cell growth inhibitory effect … (%)”) [3, 7]?
The value was 75.1%.

And the “Cell growth inhibitory effect … (%)” value ([3]; compound 3.0 μM + docetaxel 0.3 nM)?
Its value is 89.0%.

With `O=C(O)[C@]1(Cc2cccc(Nc3nccs3)n2)CC[C@@H](S(=O)(=O)c2cccc(Cl)c2Cl)CC1` [Example 32, trans-4-((2,3-dichlorophenyl)sulfonyl)-1-((6-(1,3-thiazol-2-ylamino)pyridin-2-yl)methyl)cyclohexanecarboxylic acid trifluoroacetate] as the compound, how does the IC50 (human Aurora A) read?
Its IC50 is 0.15 nM.

And the IC50 [1]?
The IC50 was 70 nM.

And the IC50 [2]?
The IC50 was 590 nM.

And the inhibition at 0.1 µM [3, 4]?
Its inhibition at 0.1 µM is 6.3%.

What about the inhibition at 0.3 µM [3, 4] of the same compound?
The inhibition at 0.3 µM was 40.8%.

And the “Cell growth inhibitory effect … (%)” value [3, 5]?
Its value is 88.6%.

And the “Cell growth inhibitory effect … (%)” value [3, 6]?
Its value is 94.0%.

With `O=C(O)[C@]1(Cc2cccc(Nc3cc[nH]n3)n2)CC[C@@H](Sc2cccc(Cl)c2Cl)CC1` [Example 33, trans-4-((2,3-dichlorophenyl)thio)-1-((6-(1H-pyrazol-3-ylamino)pyridin-2-yl)methyl)cyclohexanecarboxylic acid trifluoroacetate] as the compound, how does the IC50 (human Aurora A) read?
The IC50 was 0.13 nM.

What about the IC50 [1] of the same compound?
The IC50 was 210 nM.

What about the IC50 [2] of the same compound?
The IC50 was 2220 nM.

And the inhibition at 0.3 µM [3, 4]?
Its inhibition at 0.3 µM is 0.3%.

And the inhibition at 1 µM [3, 4]?
Its inhibition at 1 µM is 23.4%.

What about the “Cell growth inhibitory effect … (%)” value [3, 6] of the same compound?
Its value is 75.5%.

What about the “Cell growth inhibitory effect … (%)” value [3, 7] of the same compound?
The value was 91.3%.

What does the source list for `O=c1[nH]nc([C@]2(Cc3cccc(Nc4cc[nH]n4)n3)CC[C@@H](Sc3cccc(Cl)c3Cl)CC2)o1` [Example 34, 5-(trans-4-((2,3-dichlorophenyl)thio)-1-((6-(1H-pyrazol-3-ylamino)pyridin-2-yl)methyl)cyclohexyl)-1,3,4-oxadiazol-2(3H)-one trifluoroacetate]?
IC50 (human Aurora A): 0.47 nM; IC50 [1]: 690 nM; IC50 [2]: 870 nM; inhibition at 0.1 µM [3, 4]: 3.9%; inhibition at 0.3 µM [3, 4]: 40.8%; Cell growth inhibitory effect by combined administration of docetaxel and the compound of Example (%) [3, 5]: 83.8%; Cell growth inhibitory effect by combined administration of docetaxel and the compound of Example (%) [3, 6]: 93.9%

`O=c1[nH]nc([C@]2(Cc3cccc(Nc4cc[nH]n4)n3)CC[C@@H]([S+]([O-])c3cccc(Cl)c3Cl)CC2)o1` (stereo partly drawn) [Example 35, 5-(trans-4-((2,3-dichlorophenyl)sulfinyl)-1-((6-(1H-pyrazol-3-ylamino)pyridin-2-yl)methyl)cyclohexyl)-1,3,4-oxadiazol-2(3H)-one trifluoroacetate] was tested. Which IC50 (human Aurora A) did it give?
Its IC50 is 0.31 nM.

And the IC50 [1]?
Its IC50 is 120 nM.

What about the IC50 [2] of the same compound?
The IC50 was 220 nM.

What about the inhibition at 0.03 µM ([3]; Homo sapiens, HeLa S3, 72 h, compound 0.03 μM alone, read-out: Cell growth inhibitory effect by sole administration of the compound of Example (%)) of the same compound?
Its inhibition at 0.03 µM is 25.1%.

And the inhibition at 0.1 µM [3, 4]?
Its inhibition at 0.1 µM is 42.7%.

What about the “Cell growth inhibitory effect … (%)” value ([3]; compound 0.03 μM + docetaxel 0.3 nM) of the same compound?
The value was 78.0%.

What about the “Cell growth inhibitory effect … (%)” value [3, 5] of the same compound?
The value was 89.9%.

Which results are given for `O=c1[nH]nc([C@]2(Cc3cccc(Nc4cc[nH]n4)n3)CC[C@@H](S(=O)(=O)c3cccc(Cl)c3Cl)CC2)o1` [Example 36, 5-(trans-4-((2,3-dichlorophenyl)sulfonyl)-1-((6-(1H-pyrazol-3-ylamino)pyridin-2-yl)methyl)cyclohexyl)-1,3,4-oxadiazol-2(3H)-one trifluoroacetate]?
IC50 (human Aurora A): 0.43 nM; IC50 [1]: 370 nM; IC50 [2]: 1130 nM; inhibition at 0.1 µM [3, 4]: 2.6%; inhibition at 0.3 µM [3, 4]: 32%; Cell growth inhibitory effect by combined administration of docetaxel and the compound of Example (%) [3, 5]: 76.8%; Cell growth inhibitory effect by combined administration of docetaxel and the compound of Example (%) [3, 6]: 88.9%
